These results are taken from patent US8334280B2, “Ligands of estrogen receptors α and β, method of their preparation, and pharmaceuticals comprising them” (Ustav Molekularni Genetikv AV CR, V.V.I., priority 2008, dated 2012).

What is called EC50 is the concentration at which the effect is half-maximal.

Structures are written as SMILES.

Format in all cases: cell-based
The test system of one data set is MCF-7 cells. Briefly: proliferation assay in estrogen-growth-dependent MCF-7 cell line. The note with it: for proliferation effect on MCF-7 cells: 1 nM concentration. On the procedure:
The MCF-7 cell line was derived from a breast adenocarcinoma and, considering its growth dependency on estrogen, it is a valuable tool for evaluation of estrogenic properties of chemical compounds. Since MCF-7 cells express exclusively ERα, the proliferative effect of tested compounds is mediated mainly by this receptor.
MCF-7 cells were cultivated for 6 days in DMEM medium without phenol red containing 8% charcoal treated fetal calf serum and 2 mM glutamine. During this time the cells stopped proliferating and the medium was supplemented with different concentrations of tested compounds in DMSO. The cells were further cultured in the medium described above in the presence of tested compounds, and after 3 days the medium was changed and the tested compounds in DMSO were added to the medium once again. After another 3 days the amount of viable cells was measured using the kit […]-BLUE Cell Viability Assay (Promega) according to the manufacturer's instructions. The fluorescent measurement was carried out on the combined spectrophotometer ENVISION (PerkinElmer), and the results are shown in FIGS. 8 and 9.

The next data set concerns the target T1, human ERα (Homo sapiens, UniProt P03372).
T1 construct: expressed in transfected cells; host or cells: COS-7
T1 sequence (P03372 1-595): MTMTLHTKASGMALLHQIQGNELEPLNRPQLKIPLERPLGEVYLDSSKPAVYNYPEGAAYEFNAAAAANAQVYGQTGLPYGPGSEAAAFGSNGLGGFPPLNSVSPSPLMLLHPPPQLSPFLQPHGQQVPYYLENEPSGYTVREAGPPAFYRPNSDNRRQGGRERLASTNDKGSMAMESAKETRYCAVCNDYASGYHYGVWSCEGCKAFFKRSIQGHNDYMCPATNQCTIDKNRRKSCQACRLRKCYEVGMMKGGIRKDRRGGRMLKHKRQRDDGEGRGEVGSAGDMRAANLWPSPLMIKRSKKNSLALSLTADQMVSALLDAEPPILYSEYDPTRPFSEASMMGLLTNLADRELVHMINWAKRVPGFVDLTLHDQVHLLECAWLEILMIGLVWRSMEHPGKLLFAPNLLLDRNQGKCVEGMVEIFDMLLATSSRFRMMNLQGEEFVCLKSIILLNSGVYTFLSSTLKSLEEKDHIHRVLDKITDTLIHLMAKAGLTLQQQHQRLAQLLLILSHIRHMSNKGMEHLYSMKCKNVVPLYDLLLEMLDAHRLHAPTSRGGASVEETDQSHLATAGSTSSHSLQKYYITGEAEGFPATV
Nature of the data set: reporter assay (luciferase) in COS-7 cells transfected with human ERα. The note with it: for EC50: COS-7 cells, 24 h with compound, luciferase, read-out: EC50 of tested ligands in the reporter assays, ER α; for ligand selectivity for ERα in the reporter assays: ratio of relative activities of ERα and ERβ, E2 = 1.00. On the procedure:
(§1) The activity of some of the selected novel ligands of estrogen receptors was determined in reporter assays with the COS-7 cells. The reporter assay has an advantage over a classical determination of the ligand binding affinity for the receptor because in the case of steroid hormone receptors the high affinity of the ligand for the receptor doesn't always result in the equally high potency of activating the transcription via the receptor. The COS-7 cell line provides a significant advantage for this type of experiment, since it doesn't express endogenous ERα or ERβ at significant levels, and therefore it is highly suitable for the reporter assays. In addition, these compounds were also tested in the reporter assays with HEK293 cell-line.
(§2) COS-7 cells were transfected with the expression vector encoding human ERα or ERβ and with the reporter vector containing one estrogen responsive element followed by the minimal thymidine kinase promoter from the herpes simples virus. Luciferase was used as a reporter gene. The cells were seeded in a white 96-well plate after transfection, and were further cultivated in the DMEM medium without phenol red containing 2 mM glutamine, 20 mM Hepes, pH 7.5, 5 μg/ml insulin, 5 μg/ml human transferine, 100 μg/m1 bovine serum albumin (BSA). Serially diluted compounds in DMSO were added to cells 24 hours after transfection, and after the next 24 hours the luciferase activity was measured using the commercial STEADY-GLO Luciferase Assay Kit (Promega) according to the manufacturer's instructions. The luminescence was measured using the combined spectrophotometer ENVISION (PerkinElmer) with 1 s signal integration. […] The ligand selectivity for the given receptor was calculated as a ratio of relative activities of ERα and ERβ for the given ligand.
A general note: Reporter assays use an easily measured gene product as a stand-in for the process of interest.

In a further data set the target is T2, human ERβ (Homo sapiens, UniProt Q92731).
T2 construct: expressed in transfected cells; host or cells: COS-7
Briefly: reporter assay (luciferase) in COS-7 cells transfected with human ERβ. The note with it: for EC50: COS-7 cells, 24 h with compound, luciferase, read-out: EC50 of tested ligands in the reporter assays, ER β; for ligand selectivity for ERβ in the reporter assays: ratio of relative activities of ERα and ERβ, E2 = 1.00. As to the method:
as §1, §2

T2 sequence (Q92731 whole entry): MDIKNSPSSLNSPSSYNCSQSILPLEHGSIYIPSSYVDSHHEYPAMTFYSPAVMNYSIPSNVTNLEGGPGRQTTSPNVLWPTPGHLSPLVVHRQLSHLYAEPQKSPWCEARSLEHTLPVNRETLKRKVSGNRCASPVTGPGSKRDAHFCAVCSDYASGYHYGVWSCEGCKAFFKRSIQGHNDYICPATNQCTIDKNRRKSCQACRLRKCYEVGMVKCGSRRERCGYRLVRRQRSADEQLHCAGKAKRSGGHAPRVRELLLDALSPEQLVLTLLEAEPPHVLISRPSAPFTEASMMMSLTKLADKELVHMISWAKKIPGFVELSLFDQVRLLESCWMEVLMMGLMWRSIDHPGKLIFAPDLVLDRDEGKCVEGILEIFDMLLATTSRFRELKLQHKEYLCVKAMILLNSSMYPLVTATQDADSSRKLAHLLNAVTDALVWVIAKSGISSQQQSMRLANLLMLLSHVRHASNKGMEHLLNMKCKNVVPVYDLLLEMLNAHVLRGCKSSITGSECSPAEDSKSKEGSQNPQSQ

Take `C[C@]12CC[C@@H]3c4ccc(O)cc4CC[C@H]3[C@@H]1CC[C@@H]2O` [Ligand E2, estradiol, reference compound]: the “toxic effect on MCF-7 cells” value in the data set on MCF-7 cells (high concentrations of ligands (1-10 μM)) was “toxic effect”.
As to `CCOC(=O)C1(C(=O)OCC)Cc2ccc([C@]3(O)CC[C@H]4[C@@H]5CCc6cc(O)ccc6[C@H]5CC[C@@]43C)cc2C1` [PN202, 17α[2,2-Bis(ethoxycarbonyl)-1,3-dihydro-2H-inden-5-yl]-estradiol], at human ERα, the concentration giving a half-maximal response (EC50) was 3.85 nM and the “ligand selectivity for ERα in the reporter assays” value (shortened to “ligand selectivity for ERα”) came to 1.83. At human ERβ, the EC50 was 19.3 nM and the “ligand selectivity for ERβ in the reporter assays” value came out at 0.55. In addition, in the data set with MCF-7 cells, the “proliferation effect on MCF-7 cells” value is on record as “comparable to estradiol”.
`CCOC(=O)C1(C(C)=O)Cc2ccc([C@]3(O)CC[C@H]4[C@@H]5CCc6cc(O)ccc6[C@H]5CC[C@@]43C)cc2C1` (stereo partly drawn) [PN207, 17α-[2-Acetyl-2-(ethoxycarbonyl)-1,3-dihydro-2H-inden-5-yl]-estradiol]: the EC50 at human ERβ was 14.5 nM.
On to `C[C@]12CC[C@@H]3c4ccc(O)cc4CC[C@H]3[C@@H]1CC[C@@]2(O)c1ccc2c(c1)CCC2` [PN214, 17α-(1,3-Dihydro-2H-inden-5-yl)-estradiol], for which the “stimulation of ERα in the reporter assays” value at human ERα (1 nM) is listed as “doesn't stimulate ERα”. In addition, the EC50 amounted to 21.1 nM at human ERα and 1.08 nM at human ERβ. Besides, the “ligand selectivity for ERα” value on human ERα worked out at 0.02. For the same molecule, in the data set with MCF-7 cells, the “proliferation effect on MCF-7 cells” value is “no activity”.
Take `CC(=O)C1(C(C)=O)Cc2ccc([C@]3(O)CC[C@H]4[C@@H]5CCc6cc(O)ccc6[C@H]5CC[C@@]43C)cc2C1` [PN228, 17α-(2,2-Diacetyl-1,3-dihydro-2H-inden-5-yl)-estradiol]: at human ERα, the EC50 was found to be 19 nM and the “ligand selectivity for ERα” value is on record as 1.16. For the same molecule, on human ERβ, the EC50 amounted to 60.4 nM and the “ligand selectivity for ERβ in the reporter assays” value was 0.86.
For the molecule `Cc1ccc(S(=O)(=O)N2Cc3ccc([C@]4(O)CC[C@H]5[C@@H]6CCc7cc(O)ccc7[C@H]6CC[C@@]54C)cc3C2)cc1` [PN229, 17α-(1,3-Dihydro-2-tosyl-2H-indol-5-yl)-estradiol], the EC50 on human ERβ is 62.7 nM.
Still for that read-out and setting: in the case of `CCOC(=O)C1(C#N)Cc2ccc([C@]3(O)CC[C@H]4[C@@H]5CCc6cc(O)ccc6[C@H]5CC[C@@]43C)cc2C1` (stereo partly drawn) [PN233, 17α-[2-Cyano-2-(ethoxycarbonyl)-1,3-dihydro-2H-inden-5-yl]-estradiol] it was 12.8 nM.
